Inhibition data for eight compounds are collected here from ChEMBL document CHEMBL1141914.

This test concerns the target T1, Prostaglandin G/H synthase 1 (Ovis aries) (UniProt P05979).
T1 sequence (whole entry): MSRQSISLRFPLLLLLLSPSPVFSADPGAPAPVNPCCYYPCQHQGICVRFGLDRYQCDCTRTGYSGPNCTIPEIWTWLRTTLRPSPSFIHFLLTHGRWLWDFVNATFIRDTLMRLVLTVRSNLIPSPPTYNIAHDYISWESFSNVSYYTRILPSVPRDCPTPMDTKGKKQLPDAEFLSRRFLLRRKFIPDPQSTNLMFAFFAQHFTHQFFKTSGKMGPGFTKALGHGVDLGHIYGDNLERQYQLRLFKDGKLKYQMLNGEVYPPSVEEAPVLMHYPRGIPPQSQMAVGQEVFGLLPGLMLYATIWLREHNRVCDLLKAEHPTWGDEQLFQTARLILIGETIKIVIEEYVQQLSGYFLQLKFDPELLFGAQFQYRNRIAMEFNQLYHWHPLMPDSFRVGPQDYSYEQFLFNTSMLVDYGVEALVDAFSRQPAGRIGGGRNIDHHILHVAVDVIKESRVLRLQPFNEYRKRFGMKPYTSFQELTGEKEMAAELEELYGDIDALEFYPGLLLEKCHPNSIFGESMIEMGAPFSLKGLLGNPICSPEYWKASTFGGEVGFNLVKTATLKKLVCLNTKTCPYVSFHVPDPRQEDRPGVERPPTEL
The experiment in a line: Percent inhibition against Prostaglandin G/H synthase 1 from ram seminal vesicles at 100 uM.

On to `COc1cc(/C=C/c2cc(/C=C/c3ccc(O)c(OC)c3)on2)ccc1O`, for which the inhibition was 80.8%. `Oc1ccc(/C=C/c2cc(/C=C/c3ccc(O)cc3)[nH]n2)cc1` came in with an inhibition of 44.4%. The figure for `COc1cc(/C=C/c2cc(/C=C/c3ccc(O)cc3)on2)ccc1O` is 47.4%; for `COc1cc(/C=C/C(=O)CC(=O)/C=C/c2ccc(O)c(OC)c2)ccc1O` it is 80.5%; for `O=C(/C=C/c1ccc(O)cc1)CC(=O)/C=C/c1ccc(O)cc1` it is 41.7%.

Compound `COc1cc(/C=C/c2cc(/C=C/c3ccc(O)cc3)[nH]n2)ccc1O` had an inhibition of 73.9%. Next, `COc1cc(/C=C/c2cc(/C=C/c3ccc(O)c(OC)c3)[nH]n2)ccc1O`: 87%. Turning to `COc1cc(/C=C/C(O)=C/C(=O)/C=C/c2ccc(O)cc2)ccc1O`, the inhibition was 67.8%.

A word on the inhibition: it is the drop in the measured response relative to a control, in per cent. A lower inhibition goes with little suppression.
